Data published in patent publication US9464071B2 (priority 2010, dated 2016).
Values joined by “and” are separate entries in the source; they are usually repeats but may differ in a detail not shown here. Equal entries are not always repeated. Structures can show the parent of a compound that is named as a salt.

SMILES | melting point
[2H]C([2H])([2H])Oc1cc(OC([2H])([2H])[2H])cc(N(CC#Cc2ccncc2)c2ccc3ncc(-c4cnn(C(C)C)c4)nc3c2)c1 | 146 °C
COc1cc(OC)cc(N(CC2CC2)c2ccc3ncc(-c4cnn(C5CCN(S(C)(=O)=O)CC5)c4)nc3c2)c1 | 200 °C
COc1ccnc(C#CCN(c2ccc3ncc(-c4cnn(C)c4)nc3c2)c2c(Cl)c(OC)cc(OC)c2Cl)n1 | 130 °C
COc1cccnc1C#CCN(c1ccc2ncc(-c3cnn(C)c3)nc2c1)c1c(Cl)c(OC)cc(OC)c1Cl [Compound 785] | 190 °C
COc1cc(OCCO)cc(N(CC2CC2)c2ccc3ncc(-c4cnn(CCO)c4)nc3c2)c1 (as salt: HCl) [Compound 131, 2-[4-(7-{(Cyclopropylmethyl)[3-(2-hydroxyethoxy)-5-methoxyphenyl]amino}quinoxalin-2-yl)-1H-pyrazol-1-yl]ethanol] | 183.2 °C
CC(C)Oc1cccc(N(CC2CC2)c2ccc3ncc(-c4cnn(C)c4)nc3c2)c1 [Compound 22] | 109 °C and 108.61 °C
COc1cc(OC)cc(N(CC2CC2)c2ccc3ncc(-c4cn[nH]c4)nc3c2)c1 | 158 to 160 °C and 159 °C
[2H]C([2H])([2H])Oc1cc(OC([2H])([2H])[2H])cc(N(c2ccc3ncc(-c4cnn(C)c4)nc3c2)C([2H])([2H])C([2H])([2H])O)c1 | 149 °C
COc1cc(OC)cc(N(CCNC(C)C)c2ccc3ncc(-c4cnn(C5CCN(C(=O)OC(C)(C)C)CC5)c4)nc3c2)c1 | 66 °C
COc1cc(OC)cc(N(CC2CC2)c2ccc3ncc(-c4cnn(C5CCNCC5)c4)nc3c2)c1 | 90 °C
COc1cc(OC)cc(N(CC#Cc2ncccc2OC)c2ccc3ncc(-c4cnn(C)c4)nc3c2)c1 [Compound 652, N-(3,5-Dimethoxyphenyl)-N-[3-(3-methoxypyridin-2-yl)prop-2-yn-1-yl]-3-(1-methyl-1H-pyrazol-4-yl)quinoxalin-6-amine] | 144 °C and 142 °C
COc1cc(OC)cc(N(CC2CC2)c2ccc3ncc(-c4cnn(S(=O)(=O)N(C)C)c4)nc3c2)c1 [Compound 58] | 163 °C and 165 °C
COc1cc(OC)cc(N(CC(=O)Nc2nccc(OC)n2)c2ccc3ncc(-c4cnn(C)c4)nc3c2)c1 | 241 °C
COc1cc(OC)cc(N(Cc2ccc(Cl)s2)c2ccc3ncc(-c4cnn(CCO)c4)nc3c2)c1 [Compound 340] | 184.2 °C
COc1cc(OC)cc(N(CC2CC2)c2ccc3ncc(-c4cnn(C(C)(C)C(=O)N5CCNCC5)c4)nc3c2)c1 | 127.97 °C
COc1ccnc(C#CCN(c2ccc3ncc(-c4cnn(C)c4)nc3c2)c2c(F)c(OC)cc(OC)c2F)n1 | 187 °C
COc1cc(OC)cc(N(CCNC(C)C)c2ccc3ncc(-c4cnn(CCS(C)(=O)=O)c4)nc3c2)c1 | 148 °C
COc1cc(OC)cc(N(CC#Cc2cccnc2Br)c2ccc3ncc(-c4cnn(C)c4)nc3c2)c1 | 176 °C
COc1cc(OC)cc(N(CC#Cc2ncccc2OC)c2ccc3ncc(-c4cnn(C(C)C)c4)nc3c2)c1 | 119 °C
COc1cc(OC)cc(N(CC#Cc2cc(C(N)=O)ccn2)c2ccc3ncc(-c4cnn(C)c4)nc3c2)c1 | 204 °C
COc1ccc(N(CC2CC2)c2ccc3ncc(-c4cnn(C)c4)nc3c2)cc1OC | 190 °C
COc1cc(OC)cc(N(CC2CCN(c3nccc(OC)n3)CC2)c2ccc3ncc(-c4cnn(C)c4)nc3c2)c1 [Compound 839] | 126 °C
COc1cc(OC)cc(N(CCN2C(=O)c3ccccc3C2=O)c2ccc3ncc(-c4cnn(C)c4)nc3c2)c1 | 215.88 °C
COc1cc(OC)cc(N(Cc2cc(C)no2)c2ccc3ncc(-c4cnn(CCO)c4)nc3c2)c1 [Compound 23] | 134 °C
COC(=O)c1cccnc1C#CCN(c1cc(OC)cc(OC)c1)c1ccc2ncc(-c3cnn(C)c3)nc2c1 | 156 °C
COc1cc(OC)cc(N(CC2CC2)c2ccc3ncc(-c4cnn(CCCN5CCOCC5)c4)nc3c2)c1 | 123.16 °C
COc1cc(OC)cc(N(CCNC(C)C)c2ccc3ncc(-c4cnn(CC5CCOCC5)c4)nc3c2)c1 (as salt: HCl) | 166 °C
COc1cc(OC)cc(N(CCCNCC(F)(F)F)c2ccc3ncc(-c4cnn(CCCN)c4)nc3c2)c1 | 175 °C

Other lines, results leading:

melting point | SMILES
99 °C and 99.31 °C | COc1cc(OC)cc(N(CC(O)CN)c2ccc3ncc(-c4cnn(C)c4)nc3c2)c1 (centres unmarked) [Compound 125]
264 °C and 260.14 °C | COc1cc(OC)cc(N(CC(N)=O)c2ccc3ncc(-c4cnn(C)c4)nc3c2)c1
110.16 °C | COc1cc(OC)cc(N(CCN2CCN(CCO)CC2)c2ccc3ncc(-c4cnn(C)c4)nc3c2)c1 [Compound 528]
158.57 °C | COc1cc(OC)cc(N(CC2CO2)c2ccc3ncc(-c4cnn(C)c4)nc3c2)c1 (centres unmarked)
206.48 °C | COc1cc(OC)cc(N(CC(O)CN2CCC(F)(F)C2)c2ccc3ncc(-c4cnn(C)c4)nc3c2)c1 (centres unmarked) [Compound 374]
154 °C | COc1cc(OC)cc(N(C[C@H](O)C(F)(F)F)c2ccc3ncc(-c4cnn(CCCN)c4)nc3c2)c1 (stereo in doubt)
167 °C | COc1cc(OC)cc(N(CC#Cc2nccs2)c2ccc3ncc(-c4cnn(C)c4)nc3c2)c1
139.15 °C | CNC1CCN(CCCN(c2cc(OC)cc(OC)c2)c2ccc3ncc(-c4cnn(C)c4)nc3c2)C1 (centres unmarked)
133.66 °C | COc1cc(OC)cc(N(CCO)c2ccc3ncc(-c4cnn(CCCN)c4)nc3c2)c1 [Compound 238]
96.65 °C | COc1cc(F)cc(N(CCN)c2ccc3ncc(-c4cnn(C)c4)nc3c2)c1 [Compound 488]
130 °C | COc1cc(OC)cc(N(CCC(=O)N(C)OC)c2ccc3ncc(-c4cnn(C)c4)nc3c2)c1 [Compound 633]
162 °C and 162.1 °C | COc1cc(OC)cc(N(CC(C)(C)O)c2ccc3ncc(-c4cnn(C)c4)nc3c2)c1 [Compound 78]
110 °C | COc1cc(OC)cc(N(CC2CC2)c2ccc3ncc(-c4cnn(CC(C)C)c4)nc3c2)c1
170.82 °C | CNC(=O)Cn1cc(-c2cnc3ccc(N(CC4CC4)c4cc(OC)cc(OC)c4)cc3n2)cn1
123.19 °C | COc1cc(OC)cc(N(CCNCCC#N)c2ccc3ncc(-c4cnn(C)c4)nc3c2)c1 [Compound 140, 3-[(2-{(3,5-Dimethoxyphenyl)[3-(1-methyl-1H-pyrazol-4-yl)quinoxalin-6-yl]amino}ethyl)amino]propanenitrile]
145.81 °C | COc1cc(OC)cc(N(CC2CC2)c2ccc3ncc(-c4cnn(CC(=O)N(C)C)c4)nc3c2)c1 [Compound 212]
80 °C | COc1cc(OCCO)cc(N(CCCO)c2ccc3ncc(-c4cnn(C)c4)nc3c2)c1
127 °C | COc1cc(OC)cc(N(CCNC(C)C)c2ccc3ncc(-c4cnn(CCC#N)c4)nc3c2)c1 [Compound 642]
149 °C | COc1cc(OC)cc(N(CC2CNCCO2)c2ccc3ncc(-c4cnn(C)c4)nc3c2)c1 (centres unmarked)
125 °C | COc1cc(OC)cc(N(CCCNCC(F)F)c2ccc3ncc(-c4cnn(C)c4)nc3c2)c1 [Compound 717]

melting point | SMILES
167 °C | COc1cc(OC)cc(N(CC#CC2(O)CCNCC2)c2ccc3ncc(-c4cnn(C)c4)nc3c2)c1
207.88 °C | COc1cc(OC)cc(N(CC2CC2)c2ccc3ncc(-c4cnn(S(C)(=O)=O)c4)nc3c2)c1
139 °C | COc1cc(OC)cc(N(Cc2ccncc2)c2ccc3ncc(-c4cnn(C)c4)nc3c2)c1 [Compound 569]
199 °C | COc1cc(OC)cc(N(C/C(C)=N\O)c2ccc3ncc(-c4cnn(C)c4)nc3c2)c1 [Compound 81]
160 to 162 °C | CNC(=O)OCCN(c1cc(OC)cc(OC)c1)c1ccc2ncc(-c3cnn(C)c3)nc2c1
154.05 °C and 154 °C | COc1cc(OC)cc(N(CC2CC2)c2ccc3ncc(-c4cnn(CC(O)CO)c4)nc3c2)c1 (centres unmarked) [Compound 37]
155 °C | COc1cc(OC)cc(N(CCCNCC(N)=O)c2ccc3ncc(-c4cnn(C)c4)nc3c2)c1 [Compound 641]
126.47 °C | COc1cc(OC)cc(N(CCN2CC[C@H](C#N)C2)c2ccc3ncc(-c4cnn(C)c4)nc3c2)c1 [Compound 133, (3S)-1-(2-{(3,5-Dimethoxyphenyl)[3-(1-methyl-1H-pyrazol-4-yl)quinoxalin-6-yl]amino}ethyl)pyrrolidine-3-carbonitrile]
152.97 °C and 153 °C | COc1cc(OC)cc(N(CCO)c2ccc3ncc(-c4cnn(C)c4)nc3c2)c1
130.64 °C | COc1cc(OC)cc(N(CCNS(C)(=O)=O)c2ccc3ncc(-c4cnn(C)c4)nc3c2)c1 [Compound 262]
146.61 °C | COc1cc(OC)cc(N(CC(O)C(F)(F)F)c2ccc3ncc(-c4cnn(C)c4)nc3c2)c1 (single isomer, unassigned) [Compound 149, (2S*)-3-{(3,5-Dimethoxyphenyl)[3-(1-methyl-1H-pyrazol-4-yl)quinoxalin-6-yl]amino}-1,1,1-trifluoropropan-2-ol]
67 °C | COc1cc(OC)cc(N(CC#CC2CCN(C(=O)OC(C)(C)C)CC2)c2ccc3ncc(-c4cnn(C)c4)nc3c2)c1
101.91 °C | COCCn1cc(-c2cnc3ccc(N(CC4CC4)c4cc(OC)cc(OC)c4)cc3n2)cn1
88 °C | CCOC(=O)Cn1cc(CN(c2cc(OC)cc(OC)c2)c2ccc3ncc(-c4cnn(C)c4)nc3c2)nn1
155.79 °C | COc1cc(OC(C)C)cc(N(CC2CC2)c2ccc3ncc(-c4cnn(C)c4)nc3c2)c1 [Compound 269]
123 °C | COc1cc(OC)cc(N(CCNCC(O)C(F)(F)F)c2ccc3ncc(-c4cnn(C)c4)nc3c2)c1 (centres unmarked)
110 °C and 111 °C | COc1cc(OC)cc(N(CCCc2cc(C)ccn2)c2ccc3ncc(-c4cnn(C)c4)nc3c2)c1 [Compound 635]
131.93 °C | CNCCN(c1cc(OC)cc(OC)c1)c1ccc2ncc(-c3cnn(CCO)c3)nc2c1
114.12 °C | COc1cc(OC)cc(N(Cc2ccc(Cl)cc2)c2ccc3ncc(-c4cnn(C)c4)nc3c2)c1
140 °C | COc1cc(OC)cc(N(CCCN2CCC[C@@H]2CC#N)c2ccc3ncc(-c4cnn(C)c4)nc3c2)c1 (as salt: HCl)
